For data set [1], the system named is TNF-α-induced adhesion of THP-1 to HMEC-1 cells. Briefly: Monocyte binding assay, TNF-α-induced THP-1 adhesion to HMEC-1. To be noted: various concentrations, 1 h pretreatment, then 20 ng/ml TNF-α 18 h; three independent experiments (Fig. 4D, Figure S4). Type of data set: cell-based, human. How it is done:
(§1) Human micro-vascular endothelial cells-1 (HMEC-1, from American Type Culture Collection Manassas, USA) was cultured in MCDB 131 medium (Sigma, USA) with 15% fetal bovine serum (FBS; Sigma, USA). The medium was supplemented with 1% L-glutamine, 500 µg/ml streptomycin (Biowest, USA), 500 units/ml penicillin (Biowest, USA), 1 μg/ml hydrocortisone (Sigma, USA) and 10 ng/ml Epidermal Growth Factor (ProSpec, USA). The human acute monocytic leukemia cells (THP-1 cells) obtained from the Bioresource Collection and Research Center (Hsinchu, Taiwan) were cultivated in the RPMI-1640 medium (Invitrogen, USA) with 10% FBS. THP-1 were differentiated to macrophage by […] Phorbol 12-myristate 13-acetate (PMA; Sigma, USA) for 24 hours before peptides treatment.
(§2) To perform the test of monocyte adherence to endothelial cells monolayers, the HMEC-1 cell monolayers were cultivated on 24-well plates under serum-starvation condition prior to the monocyte binding assay. The peptides were added to the HMEC-1 cells for one hour prior to the activation by 20 ng/ml TNF-α (Sigma, USA), IL-1β (GOLDBIO, USA) and IL-6 (GOLDBIO, USA) for 18 hours. […] The adhered monocytes were detected and photographed (five images per well) by fluorescent microscopy and the amount of stuck THP-1 cells were counted by the software AlphaImager 2200 (Alpha Innotech, USA).

The test system of data set [2] is IL-6-induced adhesion of THP-1 to HMEC-1 cells. Briefly: Monocyte binding assay, IL-6-induced THP-1 adhesion to HMEC-1. It counts as cell-based, human. The following applies: various concentrations, 1 h pretreatment, then 20 ng/ml IL-6 18 h; three independent experiments (Figure S4). How it is done:
as §1, §2

The subject of data set [3] is IL-1β-induced adhesion of THP-1 to HMEC-1 cells. Briefly: Monocyte binding assay, IL-1β-induced THP-1 adhesion to HMEC-1. Type of data set: cell-based, human. The following applies: various concentrations, 1 h pretreatment, then 20 ng/ml IL-1β 18 h; three independent experiments (Figure S4). As to the method:
as §1, §2

Data set [4] concerns white blood cell infiltration in the peritoneal cavity, BABL/c mice. Briefly: Thioglycollate-induced acute peritonitis model. To be noted: counts at 24 h. Type of data set: in vivo, mouse. How it is done:
The animal experiment was used 8- to 10-week-old male BABL/c mice to be the animal model. These mice were purchased from the National Laboratory Animal Breeding and Research Center, Taipei. The mice were housed in a temperature-controlled, light-cycled facility. Peritonitis was induced by an intraperitoneal injection of 4% (w/v) thioglycollate in 1 ml of sterile saline (Sigma–Aldrich, USA). Treatment with saline or peptides (5 mg/kg) was performed 4 h after the administration of thioglycollate by intravenous injection. At 24 h after thioglycollate injection, mice were killed by exposure to CO2, and 5 ml of HBSS was injected into the peritoneal cavity. Cells were obtained by aspirating peritoneal lavage. Differential cell counts were determined using a Hematology Analyzer (KX-21N; Sysmex, USA).

Data set [5] has as its system TNF-α mRNA expression in HMEC-1 cells. Put plainly: qPCR of cytokine-induced TNF-α mRNA in HMEC-1. Type of data set: cell-based, human. The following applies: qPCR relative to GAPDH. How it is done: as §1
(§3) Cells were grown to confluence in 6-cm^2 culture plates. Peptides were incubated with TNF-α (20 ng/ml) for 1 h and then treated the cells for 4 h. […] An aliquot (5 µg) of purified RNA was reverse transcribed into first-strand complementary DNA (cDNA) with a 2720 Thermal Cycler (Applied Biosystems, Grand Island, NY, USA), 200 U/μl M-MLV reverse-transcriptase (Invitrogen) and […] oligo(dT)-adapter primers (Invitrogen) in a 20 μl reaction mixture. […] Quantitation of gene expression was conducted relative to GAPDH expression levels.
On the technique in general: Real-time PCR tracks product formation cycle by cycle.

Data set [6] deals with TNF-α secretion in THP-1 cells. Briefly: ELISA of IL-1β-induced TNF-α secretion in THP-1. It counts as cell-based, human. The text has this: In addition, the decline in cytokine–receptor interactions might suppress cytokine mRNA expression and cytokine production in endothelial cells and monocytes. Treatment with KCF18 suppressed TNF-α mRNA expression following cytokines TNF-α, IL-1β and IL-6 stimulation (Fig. 6). To assess the efficacy of KCF18, we performed the RT-qPCR in THP-1 and HMEC-1 cells and ELISA assay for detecting TNF-α secretion including a TNF-α blocking antibody (R&D systems, USA)[57]–[59] as an additional condition in their experiments. […] We further analyze whether the KCF18 could suppress IL-1β induced TNF-α or TNF-α induced IL-1β expressions by ELISA assay (Supporting Figure S7). […] Since TNF-α blocking antibody captures the TNF-α in the conditioned medium, it may interfere the detection of TNF-α by ELISA (Supporting Figure S7). In summary, indeed, KCF18 expresses the ability to reduce cytokines induced TNF-α mRNA and protein expression. […] We also assessed the ability of KCF18 to inhibit TNF-α-mediated p65 nuclear translocation and endothelial ICAM-1 expression (Supporting Figure S8). […]
Figure S7: Peptide KCF18 and TNF-a antagonist antibody affect the protein expression of cytokine s-induced TNF-α an d I L-1b in TH P-1 cells. TNF-α and IL-1b secretion levels induced by (A) IL-1b and (B) TNF-α in THP-1 were determined using ELISA assays. […]
(An ELISA detects its analyte on a solid surface through an enzyme-linked reagent.)

The subject of data set [7] is TNF-α mRNA expression in THP-1 cells. Put plainly: qPCR of cytokine-induced TNF-α mRNA in THP-1. Type of data set: cell-based, human. The following applies: qPCR relative to GAPDH; TNF-α blocking antibody 1 μg/ml, peptide 500 nM; three independent experiments (Figure S6A). As to the method:
as §1, §3

The subject of data set [8] is HMEC-1 cells. Briefly: Cell cytotoxic assay (WST-1). It counts as cell-based, human. To be noted: WST-1, 24 and 48 hours, 0.5 μM to 5 μM peptide (Figure S5). How it is done: as §1
To assess whether the peptide KCF18 is toxic to the endothelial cells, 1 × 10^4 cells were placed into 96-well micro-plates and incubated for 2 hours for adherence. After adhesion, the medium with various concentrations of peptides (0.5 μM to 5 μM) were added to the wells. After 24 and 48 hours, the HMEC-1 cells were washed with Hank’s balanced salt solution and the survivals of HMEC-1 were detected by WST-1 assay kit (Roche, USA). The experiment was assessed in quadruplicate and repeated three times.
(In general: Formazan colour is commonly taken as a measure of viable cells.)

The target of data set [9] is T1, IL-6 (Homo sapiens, UniProt P05231).
T1 construct: purchased GOLDBIO.COM, USA 1110-06
Briefly: SPR binding to immobilized IL-6 (Biacore T200). The following applies: CM5 chip, IL-6 immobilized (approximately 2000 RU), single cycle, 2, 10, 25, 50, 100 μM peptide, 10 μl/min, 25 °C, monovalent binding model, read-out: equilibrium dissociation KD. As to the method:
The recombinant proteins of TNF-α (catalog^#1130-01), IL-1β (catalog^#1110-01B), and IL-6 (catalog^#1110-06) were purchased from the GOLDBIO.COM, USA.
The peptide KCF18 predicted from molecular docking and MM/PBSA binding free energy calculations were synthesized to confirm whether the peptide can bind to the pro-inflammatory cytokines by using SPR measurements. A Biacore T200 workstation (GE Healthcare, USA) was used for SPR detection. These cytokines (250 μg/ml TNF-α and 400 μg/ml IL-6) were diluted into 10 mM sodium acetate buffer at pH 4.0 and immobilized onto a CM5 sensor chip using amine coupling (EDC-NHS) for 210 secs at a flow rate of 10 μl/min. Approximately 5000 and 2000 response units (RU) of cytokines TNF-α and IL-6 were immobilized on the sensor chip, respectively. The flow channel-1 also treated the EDC-NHS as a reference to reduce the non-specific binding between dextran and peptides. […] The complexes were allowed to associate for 180 secs and then to dissociate for 90 secs. Surfaces were regenerated with an injection of 2 mM MgCl2 at a flow rate of 30 µl/min for 30 secs. A monovalent binding model was used to generate and fit the equilibrium binding curves for each peptide to determine the KD of the binding of peptide KCF18 with the pro-inflammatory cytokines.

The target of data set [10] is T2, interleukin-6 (IL-6), recombinant (UniProt P05231 30-212).
T2 construct: IL-6, bought recombinant protein; The simulations used human IL-6 (PDB 2IL6 with a modelled N-terminus); The bought product is probably mature human IL-6 (surmise); Amine-coupled to a CM5 chip for SPR; source: bought: GOLDBIO.COM, USA (catalog #1110-06)
Briefly: SPR; Biacore T200; cytokine (about 5000 RU TNF-α, about 2000 RU IL-6) amine-coupled to a CM5 chip; peptide flowed over, single cycle kinetics, KCF18 at 2, 10, 25, 50 and 100 μM, 10 μl/min, 25 °C; steady-state binding isotherm fitted with a monovalent binding model. To be noted: both partners purified.

The target of data set [11] is T3, tumor necrosis factor-α (TNF-α), recombinant (UniProt P01375 77-233).
T3 construct: TNF-α, bought recombinant protein; The bought product is probably the soluble mature human form (surmise); Amine-coupled to a CM5 chip for SPR; source: bought: GOLDBIO.COM, USA (catalog #1130-01)
The description is as above. To be noted: both partners purified.

The values that follow come from article PMC6381106 (Scientific Reports, 2019).

No end group written: not given here.

T3 sequence (P01375 77-233): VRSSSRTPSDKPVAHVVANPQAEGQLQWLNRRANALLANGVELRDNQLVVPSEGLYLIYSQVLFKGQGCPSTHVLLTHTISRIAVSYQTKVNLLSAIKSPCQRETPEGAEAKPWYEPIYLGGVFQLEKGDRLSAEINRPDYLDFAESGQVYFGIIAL
T1 sequence (P05231 30-212): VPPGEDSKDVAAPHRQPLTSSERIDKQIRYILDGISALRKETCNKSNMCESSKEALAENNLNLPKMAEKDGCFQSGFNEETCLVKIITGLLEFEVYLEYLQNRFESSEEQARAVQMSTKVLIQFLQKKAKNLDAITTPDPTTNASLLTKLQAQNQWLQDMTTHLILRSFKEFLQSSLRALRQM

Consider “CPLNGSTVYGHLRHCLSCSGTMVKF [CF25, a random peptide with 25 amino acids, negative control]”, for which, in [1], the “effect on TNF-α-induced monocyte binding to HMEC-1 (in words)” value was “could not repress cytokine-increased monocyte binding to HMEC-1 cells”. Also, the “effect on IL-6-induced monocyte binding to HMEC-1 (in words)” value in data set [2] was “could not repress cytokine-increased monocyte binding to HMEC-1 cells”. Besides, the “effect on IL-1β-induced monocyte binding to HMEC-1 (in words)” value in data set [3] was “could not repress cytokine-increased monocyte binding to HMEC-1 cells”. Also, in data set [4] (5 mg/kg i.v. 4 h after i.p. 4% thioglycollate, mean ± SEM, n = 5 KCF18, n = 7 CF25, n = 6 control, *P < 0.05 vs control (Fig. 7)), the “total white blood cell infiltration in the peritoneal cavity (in words)” value was “had no potential anti-inflammatory effect”. Moreover, in data set [5] (peptide incubated with TNF-α (20 ng/ml) 1 h, cells treated 4 h, three independent experiments (Fig. 6A)), the “TNF-α-induced TNF-α mRNA expression in HMEC-1 (in words)” value is listed as “had no inhibitory effect on TNF-α-induced TNF-α mRNA expression”.

Consider “KCAKEMFAQKLPYSAVYF [mKCF18, mutant peptide of KCF18]”, for which the “IL-1β-induced TNF-α expression in THP-1 (in words)” value in data set [6] (20 ng/ml IL-1β, pretreatment with peptide, relative to cell lysate concentration, three independent experiments (Figure S7A)) is listed as “could not inhibit IL-1β induced TNF-α expression”. Also, the “WBC infiltration, comparison of mKCF18 with KCF18 (in words)” value in [4] (i.v. 4 h after i.p. thioglycollate, n = 3 for each group (Figure S9)) is “worse than KCF18 peptide”. In addition, the “TNF-α-induced TNF-α mRNA expression in THP-1, antibody comparison (in words)” value in [7] is reported as “had no inhibitory effect on TNF-α induced TNF-α mRNA expression in both cells”. For the same molecule, in data set [5] (TNF-α blocking antibody 1 μg/ml, peptide 500 nM, three independent experiments (Figure S6B)), the “TNF-α-induced TNF-α mRNA expression in HMEC-1, antibody comparison (in words)” value was “had no inhibitory effect on TNF-α induced TNF-α mRNA expression in both cells”.

Regarding KCRKEMFKQKLPYSTVYF [KCF18], in [8], the “HMEC-1 cell viability vs control cells (in words)” value was “no important discrepancy was noticed in cell viability among control cells and peptide-treated cells”. Moreover, the dissociation constant (Kd) in data set [9] amounted to 111 µM.

Regarding “IL-1β: recombinant IL-1β (GOLDBIO), used as stimulus [reference compound]”, in [6] (20 ng/ml IL-1β as stimulus), the “induction of TNF-α secretion in THP-1” value is listed as 2 fold.

B1: composite peptide KCF18 (peptide)
peptide: KCRKEMFKQKLPYSTVYF
notes: designed 18-residue composite peptide: KCRKEM from TNFR1, FKQKLP from IL-1R, YSTVYF from the IL-6 receptor; also called designed peptide KCF18; source: synthetic peptide (GeneMark, GMbiolab Co., Ltd., Taiwan; solid phase)
Regarding B1, the values for the dissociation constant Kd in data set [10] and in data set [11] were 112 µM and 60.9 µM, respectively.

One may read the Kd as the free concentration of one partner at which half of the binding sites on the other are occupied at equilibrium, for simple one-to-one binding.
